# Results reported in patent US8545841B2, “Methods and compositions for the treatment of cancers and pathogenic infections” (University of Florida Research Foundation, Inc., priority 2008, dated 2013).
# What was measured:
# [1] = test system: P. gingivalis; assay: Trafficking of P. gingivalis to lysosomes in human coronary arterial endothelial cells (HCAEC); format: cell-based, Porphyromonas gingivalis; details: HCAEC exposed to P. gingivalis; replicative vacuole in untreated cells
# Excerpt: FIGS. 7A-7D. The inhibition of autophagy by AI-1 and AI-2 results in the trafficking of P. gingivalis to lysosomes. Human coronary arterial endothelial cells (HCAEC) were exposed to P. gingivalis (Pg) in the absence (FIG. 7A) and presence of 3-methyladenine (3MA) (FIG. 7B) and compounds AI-1 (FIG. 7C) and AI-2 (FIG. 7D).
# We have previously shown that autophagy is required for P. gingivalis to thrive within host endothelial cells (Dorn, B. R., Dunn, W. A., Jr., and Progulske-Fox, A. “Porphyromonas gingivalis traffics to autophagosomes in human coronary artery endothelial cells” Infect Immun, 2001, Vol. 69, pp. 5698-5708). In fact, in the absence of autophagy, this bacterium fails to form a “replicative vacuole” and is instead transported to lysosomes where the bacterium is destroyed by digestive enzymes. We then tested the efficacy of AI-1 and AI-2 to promote the intracellular movements of this intracellular pathogen to the destructive lysosomes.
# [2] = test system: Saos-2 osteosarcoma and MDA-MB468 breast carcinoma cell lines; assay: GFP-Atg8 labeled autophagic vacuoles in nutrient-starved cells stably expressing GFP-Atg8; format: cell-based; details: starved Saos-2 cells, FIG. 2
# Description: FIGS. 2A-2D. Atg-4-targeted drugs decreased the number of Atg8 (LC3)-labeled autophagic vacuoles. Saos-2 osteosarcoma and MDA-MB468 breast carcinoma cells stably expressing GFP-Atg8 were incubated under nutrient fed and starved (St) conditions in the presence and absence of AI-1 and AI-2. The presence GFP-Atg8 labeled autophagic vacuoles appear as dots (arrows) in starved Saos-2 cells (FIG. 2B). Atg8-labeled vacuoles are not observed in fed Saos-2 cells or starved cell treated with AI-1. Almost 70% of the starved cells contained autophagic vacuoles. However, the number of starved cells containing autophagic vacuoles was dramatically reduce upon treatment with AI-1 and AI-2 (FIG. 2D; n=number of cells counted). The Atg4 compounds were obtained from the National Cancer Institute (NCI) and then tested for their ability to suppress autophagy by observing the presence of autophagosomes in Saos-2 osteosarcoma and MDA-MB468 breast carcinoma cell lines stabling expressing Atg8 tagged with a green fluorescent protein (GFP-Atg8). Upon the onset of autophagy, Atg8 becomes lipidated being anchored to the autophagosome membrane whereby this protein then recruits additional membranes for expanding the size of the vacuoles and thus, regulating the degradative amplitude of autophagy. […]
# [3] = test system: Saos-2 and MDA-MB468 cells; assay: Starvation induced (autophagy-mediated) protein degradation, pulse-chase with 14C-leucine; format: cell-based; details: starved cells, FIG. 4
# Description: FIG. 4. Atg-4-targeted drugs suppress starvation induced (autophagy-mediated) protein degradation. Saos-2 and MDA-MB468 cells were incubated under nutrient fed and starved conditions in the presence and absence of 3-methyladenine (3MA), AI-1 and AI-2 and the rates of protein degradation measure by pulse-chase methodology with 14C-leucine. Bars=mean±SEM. n=4-6 trials. The Atg4 compounds were obtained from the National Cancer Institute (NCI) and then tested for their ability to suppress autophagy by observing the presence of autophagosomes in Saos-2 osteosarcoma and MDA-MB468 breast carcinoma cell lines stabling expressing Atg8 tagged with a green fluorescent protein (GFP-Atg8). Upon the onset of autophagy, Atg8 becomes lipidated being anchored to the autophagosome membrane whereby this protein then recruits additional membranes for expanding the size of the vacuoles and thus, regulating the degradative amplitude of autophagy. […] Compared to 70% of the starved cells containing autophagic vacuoles, less than 20% of those starved cells treated with AI-1 or AI-2 contained these vacuoles. These observations were consistent with the negative effects of these compounds on the lipidation of Atg8 (FIG. 3). Saos-2 cells expressing GFP-Atg8 were starved for amino acids for 2-6 h in the absence and presence of 3-methyladenine and the Atg4 compounds. […]
# [4] = test system: Atg8 (LC3); assay: Lipidation of Atg8 (Atg8-PE) by Western blotting in starved Saos-2 cells; format: cell-based; details: Saos-2 cells expressing GFP-Atg8 starved for amino acids for 2-6 h
# Excerpt: (§1) FIG. 3. Atg-4-targeted compounds suppress the lipidation of Atg8 (LC3) in Saos-2 osteosarcoma cells. The lipidation of Atg8 (Atg8-PE) was examined by Western blotting in fed and starved (medium lacking amino acids and serum) cells and in starved cells treated with 3-methyladenine (3MA), AI-1 and AI-2. The Atg4 compounds were obtained from the National Cancer Institute (NCI) and then tested for their ability to suppress autophagy by observing the presence of autophagosomes in Saos-2 osteosarcoma and MDA-MB468 breast carcinoma cell lines stabling expressing Atg8 tagged with a green fluorescent protein (GFP-Atg8). Upon the onset of autophagy, Atg8 becomes lipidated being anchored to the autophagosome membrane whereby this protein then recruits additional membranes for expanding the size of the vacuoles and thus, regulating the degradative amplitude of autophagy. […] Compared to 70% of the starved cells containing autophagic vacuoles, less than 20% of those starved cells treated with AI-1 or AI-2 contained these vacuoles. These observations were consistent with the negative effects of these compounds on the lipidation of Atg8 (FIG. 3). Saos-2 cells expressing GFP-Atg8 were starved for amino acids for 2-6 h in the absence and presence of 3-methyladenine and the Atg4 compounds. […]
# [5] = test system: Saos-2 osteosarcoma cells; assay: Survival of nutrient-starved cells, crystal violet staining; format: cell-based; details: Saos-2, nutrient-deprived serum-free medium, 24 hours
# Description: (§2) FIGS. 6A-B. Atg-4-targeted drugs decrease cell survival of nutrient deprived cancer cells. Control breast epithelial MCF10A, MDA-MB 468 breast carcinoma, Saos2 osteosarcoma, and HuH7 hepatoma were incubated under nutrient fed and starved conditions in the presence and absence of AI-1 and AI-2. The number of viable cells on the plate relative to fed after 24 hrs was quantified by crystal violet staining. Bars=mean±SEM, n=4-6 trials.
# (§3) During the early stages of tumor growth prior to vascularization, cancer cells are exposed to conditions lacking nutrients and growth factors. These cells are able to survive these conditions by activating autophagy, thereby degrading endogenous macromolecules and recycling the nutrients. In order to simulate these conditions in vitro, we have incubated cells in the absence of amino acids and serum. Approximately 65-75% of the normal and cancer cell lines tested survived when exposed to nutrient-deprived serum-free medium for 24 hours.
# [6] = test system: HuH7 hepatoma cells; assay: as above; format: cell-based; details: HuH7, nutrient-deprived serum-free medium, 24 hours
# Description: as §2, §3
# [7] = test system: breast carcinoma MDA-MB468 cells; assay: as above; format: cell-based; details: MDA-MB468, nutrient-deprived serum-free medium, 24 hours
# Description: as §2, §3
# [8] = test system: normal breast epithelial cells (MCF10A); assay: as above; format: cell-based; details: nutrient-deprived serum-free medium, 24 hours
# Description: as §2, §3
# [9] = test system: MDA-MB468 cells; assay: Size and distribution of autophagic vacuoles by electron microscopy; format: cell-based; details: starved MDA-MB468 cells
# Description: FIGS. 5A-5D. Atg-4-targeted drugs reduce the size of autophagic vacuoles. MDA-MB468 cells were incubated under nutrient fed (FIG. 5A) and starved (medium lacking amino acids and serum; FIG. 5B) conditions in the presence and absence of AI-1 (FIG. 5C) and AI-2 (FIG. 5D), Autophagic vacuoles (arrows) were visualized by electron microscopy. The “black” reaction product of CMPase, a lysosomal enzyme, can be seen within small lysosomes, many larger autophagic vacuoles (arrows) as well as the Golgi apparatus (Go).
# as §1, with “The” for “FIG. 3. Atg-4-targeted compounds suppress the lipidation of Atg8 (LC3) in Saos-2 osteosarcoma cells. The lipidation of Atg8 (Atg8-PE) was examined by Western blotting in fed and starved (medium lacking amino acids and serum) cells and in starved cells treated with 3-methyladenine (3MA), AI-1 and AI-2. The”, “3).” for “3). Saos-2 cells expressing GFP-Atg8 were starved for amino acids for 2-6 h in the absence and presence of 3-methyladenine and the Atg4 compounds.”
SMILES,location and state of intracellular P. gingivalis [1],Atg8-labeled vacuoles observed [2],degradation of endogenous proteins [3],lipidation of Atg8 (Atg8-PE) [4],survival of nutrient-starved cells [5],survival of nutrient-starved cells [6],survival of nutrient-starved cells [7],survival of nutrient-starved cells [8],distribution of autophagic vacuoles [9]
"Cn1cnc(N)c2ncnc1-2 [3-methyladenine, reference compound]",partially degraded bacteria were found in CMPase-positive lysosomes,–,–,–,–,–,–,–,–
"S=C(Nc1ccccn1)c1ccccn1 [AI-1, N-2-pyridinyl-2-pyridinecarbothioamide]",bacteria in various degraded states were observed in CMPase-positive lysosomes,not observed,reduction in the degradation of endogenous proteins,inhibiting the lipidation of Atg8 (LC3),moderate activity,moderate activity,less than 40%,only moderately affected,–
"CC(C)OC(=O)Nc1ccc2nc(-c3cscn3)[nH]c2c1 [AI-2, cambendazole]",bacteria in various degraded states were observed in CMPase-positive lysosomes,–,reduction in the degradation of endogenous proteins,inhibiting the lipidation of Atg8 (LC3),–,30 % of controls,–,only moderately affected,dramatic redistribution of the autophagic vacuoles to a centralized region of the cell
